Source: US9988381B2, “Five-member-heterocycle fused pyridine compounds, method of producing the same, and use thereof” (SHANGHAI INSTITUTE OF MATERIA MEDICA, CHINESE ACADEMY OF …, priority 2013, dated 2018)
Read-outs that look alike come from different tables or passages of the source.

Assays:
[1] = target: T1, c-Met kinase domain recombinant protein (Homo sapiens, UniProt P08581); assay: biochemical; conditions: for inhibition at 0.1 µM: read-out: Average inhibition rate at 0.1 μM (%); for inhibition at 1 µM: read-out: Average inhibition rate at 1 μM (%); for inhibition at 10 µM: read-out: Average inhibition rate at 10 μM (%)
T1 construct: 50 μL diluted solution of c-Met kinase domain recombinant protein in reaction buffer was added to initiate the reaction
T1 sequence (P08581 1078-1345 limits assumed): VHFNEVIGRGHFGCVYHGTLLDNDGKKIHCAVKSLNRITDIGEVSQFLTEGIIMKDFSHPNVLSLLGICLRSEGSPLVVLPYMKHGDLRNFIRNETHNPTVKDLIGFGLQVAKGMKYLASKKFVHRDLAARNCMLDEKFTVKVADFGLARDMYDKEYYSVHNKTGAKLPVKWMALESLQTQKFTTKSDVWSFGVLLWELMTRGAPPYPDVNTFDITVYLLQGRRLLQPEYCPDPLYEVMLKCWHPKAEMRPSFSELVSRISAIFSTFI
Protocol: (§1) Enzymatic reaction substrate Poly(Glu,Tyr)4:1 was diluted to 20 μg/mL in potassium ion free PBS (10 mM sodium phosphate buffer, 150 mM NaCl, pH7.2-7.4), microplate was coated with this solution at 125 μL per well, and reacted at 37° C. for 12-16 hours. Liquid in wells was discarded, then the plate was washed 3 times for 5 minutes each with 200 μL per well of T-PBS (PBS containing 0.1% Tween-20).
Into each well was added 50 μL diluted ATP solution in reaction buffer (50 mM HEPES pH 7.4, 50 mM MgCl2, 0.5 mM MnCl2, 0.2 mM Na3VO4, 1 mM DTT), the final concentration was 5 μM. Test compound was diluted in DMSO to proper concentration, added at 1 μL per well or corresponding level of DMSO (negative control wells), then 49 μL diluted solution of c-Met kinase domain recombinant protein in reaction buffer was added to initiate the reaction, each test was setup with two wells of ATP free control. Reaction was performed in a 37° C. shaker (100 rpm) for 1 hour. The plate was washed three times with T-PBS. Primary antibody PY99 diluted solution was added at 100 μL per well, incubated in a 37° C. shaker for 0.5 hour.
The plate was washed three times with T-PBS. Goat anti mouse secondary antibody labeled with horseradish peroxidase was added at 100 μL per well, incubated in a 37° C. shaker for 0.5 hour. The plate was washed three times with T-PBS. […] Reaction was terminated by adding 50 μL per well of 2M H2SO4, the plate was read at 490 nm using a SPECTRA MAX 190 microplate reader with tunable wavelength.
(§2) Inhibition rate of the sample was calculated using the following equation: […]
IC50 was calculated by fitting the data for a four parameter fit using inhibition curve.

[2] = target: T1, c-Met kinase domain recombinant protein; assay: biochemical; conditions: read-out: Inhibition rate at 10 μM (%)
Protocol: as §1, with “discarded. Plate washing:” for “discarded, then”, “(potassium ion free PBS” for “(PBS”
Into each well was added 49 μL diluted ATP solution in reaction buffer (50 mM HEPES pH 7.4, 50 mM MgCl2, 0.5 mM MnCl2, 0.2 mM Na3VO4, 1 mM DTT), and 1 μL per well of compound to be tested was added, then 50 μL diluted solution of c-Met kinase domain recombinant protein in reaction buffer was added to initiate the reaction, each test was setup with two wells of ATP free control. Reaction was performed in a 37° C. shaker (100 rpm) for 1 hour. Liquid in the wells was discarded, and the plate was washed three times with T-PBS.
Antibody PY99 was added at 100 μL per well (the antibody was 1:500 diluted in T-PBS containing 5 mg/mL BSA), incubated in a 37° C. shaker for 0.5 hour. Liquid in the wells was discarded, and the plate was washed three times with T-PBS.
Goat anti mouse secondary antibody labeled with horseradish peroxidase was added at 100 μL per well (the antibody was 1:2000 diluted in T-PBS containing 5 mg/mL BSA), incubated in a 37° C. shaker for 0.5 hour. Liquid in the wells was discarded, and the plate was washed three times with T-PBS.
Reaction was terminated by adding 50 μL per well of 2M H2SO4, the plate was read at 490 nm using a VERSAmax microplate reader with tunable wavelength.
as §2

Row | SMILES | inhibition at 0.1 µM [1] [%] | inhibition at 1 µM [1] [%] | inhibition at 10 µM [1] [%] | inhibition at 10 µM [2] [%] | IC50 [1] [nM]
1 | Cn1cc(-c2cnc3cnn(S(=O)(=O)c4ccccc4C#N)c3c2)cn1 [Compound 8, 1-(2-cyanobenzenesulfonyl)-6-[(1-methyl)-4-pyrazolyl]-1-H-pyrazolo[4,3-b]pyridine] | 9.2 | 51.6 | 72.4 | 72.4 | –
2 | Cn1cc(-c2cnc3cnn(S(=O)(=O)c4ccc(F)cc4F)c3c2)cn1 [Compound 12, 1-(2,4-difluorobenzenesulfonyl)-6-[(1-methyl)-4-pyrazolyl]-1-H-pyrazolo[4,3-b]pyridine] | – | – | 37.5 | 37.5 | –
3 | O=C(c1ccc(C(F)(F)F)cc1)N1CCC(n2cc(-c3cnc4cnn(S(=O)(=O)c5cnc6ccccn56)c4c3)cn2)CC1 [Example 58, 1-(imidazo[1,2-a]pyridine-3-sulfonyl)-6-{{1-[(1-p-trifluoromethylbenzoyl)-4-piperidinyl]}-4-pyrazolyl}-1-H-pyrazolo[4,3-b]pyridine] | 52.8 | 55.7 | 57.4 | 58.9 | –
4 | O=S(=O)(c1c[nH]c2ncc(-c3ccc(N4CCOCC4)cc3)cc12)n1ncc2cccnc21 [Example 110, 1-[(4-morpholinylphenyl)-1-H-pyrrolo[2,3-b]pyridine-3-sulfonyl]-1-H-pyrazolo[3,4-b]pyridine] | – | 13.5 | – | – | –
5 | CCOC(=O)c1cnc2cnn(S(=O)(=O)c3cnc4ccc(Br)cn34)c2c1 [Example 130, 1-[(6-bromo-imidazo[1,2-a]pyridine)-3-sulfonyl]-6-ethoxycarbonyl-1-H-pyrazolo[4,3-b]pyridine] | 16.1 | 90.8 | – | – | –
6 | CCCCNc1ccc2ncc(S(=O)(=O)n3ncc4ncc(-c5cnn(C)c5)cc43)n2c1 [Example 119, 1-[(6-n-butylamino-imidazo[1,2-a]pyridine)-3-sulfonyl]-6-[(1-methyl)-4-pyrazolyl]-1-H-pyrazolo[4,3-b]pyridine] | – | 26.4 | – | – | –
7 | Nc1ccc2ncc(S(=O)(=O)n3ncc4ncc(-c5cc(Cl)cc(Cl)c5)cc43)n2c1 [Example 114, 1-[(6-amino-imidazo[1,2-a]pyridine)-3-sulfonyl]-6-(3,5-dichlorophenyl)-1-H-pyrazolo[4,3-b]pyridine] | – | 30.4 | – | – | –
8 | O=S(=O)(c1c[nH]c2ncc(-c3cccc(Cl)c3)cc12)n1ncc2cccnc21 [Example 109, 1-[(3-chlorophenyl)-1-H-pyrrolo[2,3-b]pyridine-3-sulfonyl]-1-H-pyrazolo[3,4-b]pyridine] | – | 40 | – | – | –
9 | CC(=O)Nc1ccc2ncc(S(=O)(=O)n3ncc4ncc(-c5cnn(C)c5)cc43)n2c1 [Example 120, 1-[(6-acetylamino-imidazo[1,2-a]pyridine)-3-sulfonyl]-6-[(1-methyl)-4-pyrazolyl]-1-H-pyrazolo[4,3-b]pyridine] | – | 28.7 | – | – | –
10 | Cn1cc(-c2cnc3cnn(S(=O)(=O)c4ccc5ccccc5c4)c3c2)cn1 [Example 112, 1-(naphthalene-2-sulfonyl)-6-[(1-methyl)-4-pyrazolyl]-1-H-pyrazolo[4,3-b]pyridine] | – | 48.8 | – | – | –
11 | O=[N+]([O-])c1ccc2ncc(S(=O)(=O)n3ncc4ncc(-c5ccc(C(F)(F)F)cc5)cc43)n2c1 [Example 115, 1-[(6-nitro-imidazo[1,2-a]pyridine)-3-sulfonyl]-6-(4-trifluoromethylphenyl)-1-H-pyrazolo[4,3-b]pyridine] | 46.6 | 95.7 | – | – | –
12 | O=[N+]([O-])c1ccc2ncc(S(=O)(=O)n3ncc4ncc(-c5cc(F)c(F)c(F)c5)cc43)n2c1 [Example 116, 1-[(6-nitro-imidazo[1,2-a]pyridine)-3-sulfonyl]-6-(3,4,5-trifluorophenyl)-1-H-pyrazolo[4,3-b]pyridine] | 70.8 | 84.6 | – | – | 3.6 ± 0.6

Second part, the compound after the results:

Row | inhibition at 0.1 µM [1] [%] | inhibition at 1 µM [1] [%] | inhibition at 10 µM [1] [%] | inhibition at 10 µM [2] [%] | IC50 [1] [nM] | SMILES
13 | 45.5 | 58.4 | 67.5 | 67.5 | – | CN(C)c1ccc(-c2cnc3cnn(S(=O)(=O)c4cnc5ccccn45)c3c2)cc1 [Example 42, 1-(imidazo[1,2-a]pyridine-3-sulfonyl)-6-(4-dimethylaminophenyl)-1-H-pyrazolo[4,3-b]pyridine]
14 | 82.8 | 79.1 | 78.9 | > 71.9 | – | Cn1cc(-c2cnc3cnn(S(=O)(=O)c4cnc5ccc(-c6ccc(C#N)cc6)cn45)c3c2)cn1 [Example 92, 1-{[6-(4-cyanophenyl)-imidazo[1,2-a]pyridine]-3-sulfonyl}-6-[(1-methyl)-4-pyrazolyl]-1-H-pyrazolo[4,3-b]pyridine]
15 | 93.9 | 99 | – | – | 30 ± 3.3 | O=S(=O)(c1cnc2ccc(O)cn12)n1ncc2ncc(-c3ccccc3)cc21 [Example 127, 1-[(6-hydroxy-imidazo[1,2-a]pyridine)-3-sulfonyl]-6-phenyl-1H-pyrazolo[4,3-b]pyridine]
16 | 72.9 | 100 | – | – | 190 ± 32.7 | COc1ccc2ncc(S(=O)(=O)n3ncc4ncc(-c5cncc6ccccc56)cc43)n2c1 [Example 122, 1-[(6-methoxy-imidazo[1,2-a]pyridine)-3-sulfonyl]-6-(4-isoquinolinyl)-1-H-pyrazolo[4,3-b]pyridine]
17 | 87 | 99.3 | – | – | 51.5 ± 6 | COc1ccc2cc(-c3cnc4cnn(S(=O)(=O)c5cnc6ccc(OC)cn56)c4c3)ccc2c1 [Example 123, 1-[(6-methoxy-imidazo[1,2-a]pyridine)-3-sulfonyl]-6-(6-methoxy-2-naphthyl)-1-H-pyrazolo[4,3-b]pyridine]
18 | 28.6 | 63.3 | – | – | – | Cn1cc(-c2cnc3cnn(S(=O)(=O)c4cccc5ccccc45)c3c2)cn1 [Example 111, 1-(naphthalene-1-sulfonyl)-6-[(1-methyl)-4-pyrazolyl]-1-H-pyrazolo[4,3-b]pyridine]
19 | 62.7 | 75.5 | – | – | – | Nc1ccc2ncc(S(=O)(=O)n3ncc4ncc(-c5ccc(F)cc5)cc43)n2c1 [Example 118, 1-[(6-amino-imidazo[1,2-a]pyridine)-3-sulfonyl]-6-(4-fluorophenyl)-1-H-pyrazolo[4,3-b]pyridine]
20 | 66.8 | 56.9 | – | – | – | COc1cccc(C(=O)Nc2cnc3cnn(S(=O)(=O)c4cnc5ccc(OC)cn45)c3c2)c1 [Example 134, 1-[(6-methoxy-imidazo[1,2-a]pyridine)-3-sulfonyl]-6-(3-methoxybenzamido)-1-H-pyrazolo[4,3-b]pyridine]
21 | 84.5 | 99.3 | – | – | 55.2 ± 5.6 | COc1ccc2ncc(S(=O)(=O)n3ncc4ncc(-c5cccc(C(F)(F)F)c5)cc43)n2c1 [Example 125, 1-[(6-methoxy-imidazo[1,2-a]pyridine)-3-sulfonyl]-6-(3-trifluoromethylphenyl)-1-H-pyrazolo[4,3-b]pyridine]
22 | – | 15.8 | – | – | – | Nc1ccc2ncc(S(=O)(=O)n3ncc4ncc(-c5ccccc5)cc43)n2c1 [Example 117, 1-[(6-amino-imidazo[1,2-a]pyridine)-3-sulfonyl]-6-phenyl-1-H-pyrazolo[4,3-b]pyridine]
23 | 75.1 | 83.6 | – | – | – | O=C(Nc1cnc2cnn(S(=O)(=O)c3cnc4ccc(Br)cn34)c2c1)c1ccccc1 [Example 131, 1-[(6-bromo-imidazo[1,2-a]pyridine)-3-sulfonyl]-6-benzamido-1-H-pyrazolo[4,3-b]pyridine]
